Measured values taken from patent publication US10888548B2, “Anti-dandruff compositions comprising a spirofuranone lactam tetramic acid derivative” (priority 2015, dated 2021).

Tested on: Malassezia furfur (ATCC #38593)
Assay: M. furfur efficacy assay (anti-fungal activity, Alamar blue, 96 well plates)
Type: cell-based
Method: Malassezia furfur (ATCC #38593) was cultured on Media C agar for 7 d at 37° C. Yeast colonies were then harvested into 0.9% saline sterile diH2O and diluted to approximately 1.5×10^6 CFU/mL using a 0.5 MacFarland standard (Fisher #R20410) to create an assay inoculum. Assay inoculum was added to sterile Media C broth to a final concentration of 4.5×10^4 CFU/mL. Assays were carried out in 96 well plates with a final well volume of 100 μL.
Extract fractions and pure compounds were tested in triplicate against each organism. Extract fractions and pure compounds were resuspended in sterile 20% DMSO.
Each plate contained eight uninoculated positive controls (media+20% DMSO), eight untreated negative controls (Media+20% DMSO+organism), and one column containing a concentration range of a ketoconazole as a control antibiotic. The assay plate was incubated at 37° C. for 5d after which growth within the wells were visualized and photographed with a UVP Biospectrum 500 imaging system. Alamar blue was then added to each well at 10% of the culture volume (11 μL in 100 μL). Fluorescence was monitored using a BioTek Synergy HT plate reader at 530/25 excitation, 590/35 emission and 35 sensitivity at both time zero and 4 hrs after Alamar blue was added. After subtracting the time zero emission 590 nm measurement from the final reading the inferred percentage of microorganism survival relative to vehicle control wells were calculated.
Experimentation was carried out to assess the anti-fungal effect of the produced fumagillin derivative and the pseurotin A each on their own, and in combination against M. furfur in a shampoo type formulation.
Initially the M. furfur efficacy assay was tested with both J&J Baby Shampoo as well as Head & Shoulders to establish a baseline and assess the compatibility of the assay using a shampoo. Compositions of the fumagillin derivative with and without pseurotin A were created and suspended into the baby shampoo. The shampoo mixture was then diluted out into the assay in a similar manner to Head & Shoulders, so that various dilution points in the assay represented multiple sub-inhibitory concentrations of the fumagillin derivative and pseurotin A (concentration combinations are listed in Table 1).

IC50 (active alone, M. furfur, incubated at 37° C. for 5d): 55 µg/mL
MIC (active alone, M. furfur, incubated at 37° C. for 5d, listed as Pseurotin A (sample 1)): 128 µg/mL
MIC (active alone, M. furfur, incubated at 37° C. for 5d, listed as Pseurotin A (sample 2)): 75 µg/mL
SMILES: CC/C=C\[C@H](O)[C@H](O)C1=C(C)C(=O)[C@]2(O1)C(=O)N[C@@](OC)(C(=O)c1ccccc1)[C@@H]2O [Pseurotin A, pseurotin A]
anti-Malassezia activity of isolated pure fractions (fraction 6 and fraction 10 of Peyronellaea sp. RKDO347 extract): demonstrated anti-Malassezia activity
